Assay results as given in ChEMBL document CHEMBL2331375, “Design, Synthesis, and Pharmacological Evaluation of Fluorescent and Biotinylated Antagonists of ρ1 GABAC Receptors” (ACS Med Chem Lett, 2013).
Values belong to the molecule of their own block, whether it stands above or below them. Calls of active or inactive are those of the source. The rule behind the calls is not given here.

Legend:
[1] = molecular target: T1, Gamma-aminobutyric acid receptor subunit rho-1 (Homo sapiens, UniProt P24046); assay: Antagonist activity at human GABAC rho1 receptor expressed in Xenopus laevis oocytes assessed as inhibition of GABA-induced current at 600 uM by two electrode voltage clamp assay relative to control; type: cell-based; details: Oocyte
Homo sapiens = organism: Homo sapiens; assay: Selectivity for human GABAC rho1 receptor over human GABAA alpha1beta2gamma2L receptor
[2] = molecular target: T1, Gamma-aminobutyric acid receptor subunit rho-1; assay: Antagonist activity at human GABAC rho1 receptor expressed in Xenopus laevis oocytes assessed as inhibition of GABA-induced current by two electrode voltage clamp assay; type: cell-based, Oocyte
[3] = molecular target: T1, Gamma-aminobutyric acid receptor subunit rho-1; assay: Antagonist activity at human GABAC rho1 receptor expressed in Xenopus laevis oocytes assessed as inhibition of GABA-induced current preincubated for 5 mins by two electrode voltage clamp assay; type: cell-based, Oocyte
[4] = molecular target: GABA-A receptor; alpha-1/beta-2/gamma-2 (Homo sapiens) (UniProt P14867+P47870+P18507); assay: Antagonist activity at human GABAA alpha1beta2gamma2L receptor expressed in Xenopus laevis oocytes assessed as inhibition of GABA-induced current at 300 uM by two electrode voltage clamp assay relative to control; type: cell-based; details: Oocyte
[5] = molecular target: T1, Gamma-aminobutyric acid receptor subunit rho-1; assay: Agonist activity at GABAC rho1 receptor (unknown origin)
[6] = molecular target: T1, Gamma-aminobutyric acid receptor subunit rho-1; assay: Partial agonist activity at GABAC rho1 receptor (unknown origin)
[7] = Agonist activity at GABAC receptor (unknown origin) expressed in Xenopus laevis oocytes; type: cell-based; details: Homo sapiens, Oocyte
[8] = molecular target: GABA-A receptor; agonist GABA site; assay: Agonist activity at GABAA receptor (unknown origin); type: protein-complex assay, Homo sapiens
[9] = molecular target: T1, Gamma-aminobutyric acid receptor subunit rho-1; assay: Antagonist activity at human GABAC rho1 receptor expressed in Xenopus laevis oocytes assessed as inhibition of GABA-induced current at 300 uM by two electrode voltage clamp assay relative to control; type: cell-based; details: Oocyte

T1 sequence (P24046 whole entry): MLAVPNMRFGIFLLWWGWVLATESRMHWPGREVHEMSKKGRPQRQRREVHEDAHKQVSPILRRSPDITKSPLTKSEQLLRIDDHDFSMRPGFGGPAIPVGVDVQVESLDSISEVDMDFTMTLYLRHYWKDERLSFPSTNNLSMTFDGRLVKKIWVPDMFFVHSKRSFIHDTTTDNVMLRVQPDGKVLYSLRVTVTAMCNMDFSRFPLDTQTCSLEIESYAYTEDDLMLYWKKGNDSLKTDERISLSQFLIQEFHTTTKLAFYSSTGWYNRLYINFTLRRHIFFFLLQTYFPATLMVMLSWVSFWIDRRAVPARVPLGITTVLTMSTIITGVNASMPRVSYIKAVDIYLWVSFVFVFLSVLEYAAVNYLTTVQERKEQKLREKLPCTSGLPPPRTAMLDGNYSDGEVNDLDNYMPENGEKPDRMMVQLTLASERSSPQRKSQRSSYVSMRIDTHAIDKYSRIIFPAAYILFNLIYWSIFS

inhibition [1]: 23%
SMILES: CCCCP(=O)(O)C1=CC[C@H](NC(=O)CCCNC(=O)c2ccccc2NC)C1

SMILES: CCCCP(=O)(O)C1=CC[C@H](NC(=O)CCCCCNC(=O)CCC2=C3C(C)=CC(C)=[N+]3[B-](F)(F)n3c(C)cc(C)c32)C1
Selectivity ratio (Homo sapiens): > 100
IC50 [2]: 103 µM
IC50 [3]: 58.6 µM
inhibition [4]: inactive

inhibition [4]: inactive
inhibition [1]: 56%
SMILES: CCCCP(=O)(O)C1=CC[C@@H](NC(=O)CCCCCNC(=O)c2ccccc2NC)C1

EC50 [5]: 22 µM
SMILES: Cc1nc[nH]c1CC(=O)O

SMILES: NCc1cc(=O)[nH]o1 [MUSCIMOL]
EC50 [6]: 2.3 µM
EC50 [7]: 2 µM
EC50 [8]: 27 µM

SMILES: CCCCP(=O)(O)C1=CC[C@H](NC(=O)CCCCCNc2ccc([N+](=O)[O-])c3nonc23)C1
IC50 [2]: 281 µM
IC50 [3]: 193 µM
inhibition [4]: inactive

inhibition [1]: 8%
SMILES: CCCCP(=O)(O)C1=CC[C@H](NC(=O)CCCCCCCCCCNC(=O)c2ccccc2NC)C1

EC50 [7]: 20 µM
SMILES: O=C(CCCC[C@@H]1SC[C@@H]2NC(=O)N[C@@H]21)NCCCCCC(=O)NCc1cc(O)no1

inhibition [1]: 31%
SMILES: CCCCP(=O)(O)C1=CC[C@H](NC(=O)CCCCNC(=O)c2ccccc2NC)C1

EC50 [5]: 39.7 µM
SMILES: NC[C@@H]1C[C@@H]1C(=O)O

inhibition [9]: inactive
SMILES: CCCCP(=O)(O)C1=CC[C@H](NC(=O)CCCC[C@@H]2SC[C@@H]3NC(=O)N[C@@H]32)C1

inhibition [1]: 55%
SMILES: CCCCP(=O)(O)C1=CC[C@H](NC(=O)CCCCCCNC(=O)c2ccccc2NC)C1

SMILES: CCCCP(=O)(O)C1=CC[C@H](NC(=O)CCCCCNC(=O)CCCC[C@@H]2SC[C@@H]3NC(=O)N[C@@H]32)C1
IC50 [2]: 148 µM
IC50 [3]: 76.5 µM
inhibition [4]: 9%

SMILES: CCCCP(=O)(O)C1=CC[C@@H](N)C1
inhibition [9]: 92%
inhibition [4]: inactive

SMILES: CCCCP(=O)(O)C1=CC[C@H](N)C1
inhibition [9]: 97%
IC50 [2]: 9.76 µM
inhibition [4]: inactive

inhibition [4]: inactive
inhibition [1]: 62%
SMILES: CCCCP(=O)(O)C1=CC[C@H](NC(=O)CCCCCNC(=O)c2ccccc2NC)C1

inhibition [1]: 8%
SMILES: CCCCP(=O)(O)C1=CC[C@H](NC(=O)CNC(=O)c2ccccc2NC)C1

inhibition [1]: 24%
SMILES: CCCCP(=O)(O)C1=CC[C@H](NC(=O)CCCCCCCNC(=O)c2ccccc2NC)C1
